Source: patent US20100227845A1, “SUBSTITUTED 1,2,4-OXADIAZOLES AND ANALOGS THEREOF AS CB2 RECEPTOR MODULATORS, USEFUL IN THE TREATMENT OF PAIN, RESPIRATORY AND NON-RESPIRATORY DISEASES” (priority 2007, published 2010)
Like-named read-outs stand apart in the source and are kept apart here.

Key:
human CB1 = human CB1 (Homo sapiens, UniProt P21554); assay: Cyclic AMP assay (HTRF), CHO cells expressing human CB1; assay type: cell-based
Description: (§1) Chinese Hamster Ovary cells (CHO) expressing human CB1 or human CB2 (3.3×10^5 cells/ml) were preincubated for 15 min at room temperature with tested agonist and 3-isobutyl-1-methylxanthine (IBMX; 200 μM) in phosphate buffered saline containing 1 mg/ml BSA (assay buffer) followed by 30 min incubation with forskolin in a total volume of 10 μl. The optimal forskolin concentration for each cell line was established in a separate experiment and adjusted to stimulate 70% of maximal cAMP response. cAMP content was measured using an HTRF assay (CisBio) according to the manufacturer's two step protocol.

human CB2 = human CB2 (Homo sapiens, UniProt P34972); assay: Cyclic AMP assay (HTRF), CHO cells expressing human CB2; assay type: cell-based
Sequence of human CB2 (P34972 whole entry): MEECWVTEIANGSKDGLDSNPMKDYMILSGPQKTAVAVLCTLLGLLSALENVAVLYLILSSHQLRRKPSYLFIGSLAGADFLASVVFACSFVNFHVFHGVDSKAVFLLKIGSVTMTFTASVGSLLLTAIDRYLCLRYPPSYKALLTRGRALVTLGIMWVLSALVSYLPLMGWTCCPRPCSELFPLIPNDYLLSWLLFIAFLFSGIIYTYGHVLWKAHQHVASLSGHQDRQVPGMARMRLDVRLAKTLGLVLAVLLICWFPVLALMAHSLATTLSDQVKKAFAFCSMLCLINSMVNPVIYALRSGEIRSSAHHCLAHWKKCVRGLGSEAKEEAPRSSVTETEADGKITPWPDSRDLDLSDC
Description: as §1

[1] = IP of tested agonist, CHO cells expressing human CB1, forskolin-stimulated cAMP, HTRF, read-out: CB1 (HTRF)
[2] = IP of tested agonist, CHO cells expressing human CB2, forskolin-stimulated cAMP, HTRF, read-out: CB2 (HTRF)

Sequence of human CB1 (P21554 whole entry): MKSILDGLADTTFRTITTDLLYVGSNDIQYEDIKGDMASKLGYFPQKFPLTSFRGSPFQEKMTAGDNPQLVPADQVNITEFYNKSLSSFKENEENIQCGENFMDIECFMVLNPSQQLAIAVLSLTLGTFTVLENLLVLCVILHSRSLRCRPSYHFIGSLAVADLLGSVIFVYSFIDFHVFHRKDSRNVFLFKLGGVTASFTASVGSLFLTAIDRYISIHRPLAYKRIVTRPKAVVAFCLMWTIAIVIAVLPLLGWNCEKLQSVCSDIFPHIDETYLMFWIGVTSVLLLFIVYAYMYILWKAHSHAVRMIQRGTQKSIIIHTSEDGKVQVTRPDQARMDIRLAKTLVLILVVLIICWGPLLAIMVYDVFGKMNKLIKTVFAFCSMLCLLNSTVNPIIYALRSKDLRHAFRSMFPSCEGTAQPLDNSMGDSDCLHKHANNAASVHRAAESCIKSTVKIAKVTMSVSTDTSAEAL

Compound | EC50 (human CB1) [nM] | EC50 (human CB2) [nM] | EC50 (human CB1; [1]) [nM] | EC50 (human CB2; [2]) [nM]
CCCCOc1ncccc1-c1nc(-c2cccc(Cl)c2Cl)no1 [Example I-4] | 309 | 3 | – | –
CC(C)(C)COc1ncccc1-c1nc(-c2cccc(Cl)c2)no1 [II-5] | – | – | > 17000 | 508
CCCCOc1ncccc1-c1nc(-c2ccc(Cl)cc2)no1 [Example I-3] | > 17000 | 85 | – | –
CCCCOc1ncccc1-c1nc(-c2c(Cl)cccc2Cl)no1 [Example I-5] | 114 | 4 | – | –
CCCCOc1ncccc1-c1nc2ccccc2[nH]1 [IV-2] | – | – | > 17000 | 110
CCCCOc1ncccc1-c1nc(-c2ccccc2)c[nH]1 [III-2] | – | – | > 17000 | 900
COCCOc1ncccc1-c1nc(-c2cccc(Cl)c2)no1 [II-2] | – | – | > 17000 | 272
N#Cc1ccc(-c2ncccc2-c2nc3cc(Cl)c(Cl)cc3[nH]2)cc1 [IV-5] | – | – | > 17000 | 258
NC(=O)C1CCN(c2ncccc2-c2cc(-c3cccc(F)c3)n[nH]2)CC1 [Example V-5] | – | – | > 17000 | 717
CS(=O)(=O)C1CCN(c2ncccc2-c2cc(-c3cccc(F)c3)n[nH]2)CC1 [Example V-4] | – | – | 8750 | 68
CCCCOc1ncccc1-c1nc(-c2ccc(C(F)(F)F)cc2)c[nH]1 [III-3] | – | – | > 17000 | 109
